# Several values for one entry are separate records, joined by “and”; a condition that tells them apart may be missing. Equal values may be shown once.
# Key:
# [1] = target: Fibroblast growth factor receptor 3 (Homo sapiens) (UniProt P22607); conditions: Compound concentration 20.0 uM, Protein concentration 2.0 uM, Result type QC Liability
# Peregrin (Homo sapiens) = target: T1, Peregrin (Homo sapiens) (UniProt P55201); conditions: Compound concentration 20.0 uM, Protein concentration 2.0 uM, Result type QC Liability
# T1 sequence (whole entry): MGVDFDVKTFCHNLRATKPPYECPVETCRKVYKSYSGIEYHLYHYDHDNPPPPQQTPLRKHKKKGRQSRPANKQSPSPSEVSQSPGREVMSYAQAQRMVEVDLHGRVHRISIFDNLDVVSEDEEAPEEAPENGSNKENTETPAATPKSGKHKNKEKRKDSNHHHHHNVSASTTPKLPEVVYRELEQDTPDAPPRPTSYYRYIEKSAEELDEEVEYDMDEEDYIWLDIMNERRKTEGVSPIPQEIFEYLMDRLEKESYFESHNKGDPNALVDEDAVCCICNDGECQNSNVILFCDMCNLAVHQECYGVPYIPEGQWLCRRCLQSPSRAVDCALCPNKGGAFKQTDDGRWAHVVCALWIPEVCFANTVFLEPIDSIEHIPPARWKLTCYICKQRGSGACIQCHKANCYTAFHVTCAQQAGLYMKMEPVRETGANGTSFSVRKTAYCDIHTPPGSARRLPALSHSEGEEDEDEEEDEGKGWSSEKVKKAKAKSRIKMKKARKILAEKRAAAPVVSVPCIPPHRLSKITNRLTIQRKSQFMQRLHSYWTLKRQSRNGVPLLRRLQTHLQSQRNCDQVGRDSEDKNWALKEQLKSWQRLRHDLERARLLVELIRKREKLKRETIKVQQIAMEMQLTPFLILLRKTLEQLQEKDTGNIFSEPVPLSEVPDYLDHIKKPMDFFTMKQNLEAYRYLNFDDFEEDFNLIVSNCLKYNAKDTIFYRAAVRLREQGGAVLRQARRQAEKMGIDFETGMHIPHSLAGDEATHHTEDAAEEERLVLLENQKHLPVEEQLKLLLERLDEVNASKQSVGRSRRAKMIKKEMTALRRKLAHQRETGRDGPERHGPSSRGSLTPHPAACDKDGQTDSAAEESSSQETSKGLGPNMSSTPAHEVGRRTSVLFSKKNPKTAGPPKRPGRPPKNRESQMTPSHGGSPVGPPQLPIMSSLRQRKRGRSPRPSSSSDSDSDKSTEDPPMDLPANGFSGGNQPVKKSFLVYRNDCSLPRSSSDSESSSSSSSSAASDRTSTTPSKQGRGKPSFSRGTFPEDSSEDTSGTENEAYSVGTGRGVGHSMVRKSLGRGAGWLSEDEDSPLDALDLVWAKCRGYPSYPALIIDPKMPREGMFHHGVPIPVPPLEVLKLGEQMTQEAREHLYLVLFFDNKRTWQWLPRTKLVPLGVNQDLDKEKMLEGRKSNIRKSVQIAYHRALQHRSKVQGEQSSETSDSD
# Chain of Fibroblast growth factor receptor 3 (Homo sapiens) (P22607 23-806 limits assumed): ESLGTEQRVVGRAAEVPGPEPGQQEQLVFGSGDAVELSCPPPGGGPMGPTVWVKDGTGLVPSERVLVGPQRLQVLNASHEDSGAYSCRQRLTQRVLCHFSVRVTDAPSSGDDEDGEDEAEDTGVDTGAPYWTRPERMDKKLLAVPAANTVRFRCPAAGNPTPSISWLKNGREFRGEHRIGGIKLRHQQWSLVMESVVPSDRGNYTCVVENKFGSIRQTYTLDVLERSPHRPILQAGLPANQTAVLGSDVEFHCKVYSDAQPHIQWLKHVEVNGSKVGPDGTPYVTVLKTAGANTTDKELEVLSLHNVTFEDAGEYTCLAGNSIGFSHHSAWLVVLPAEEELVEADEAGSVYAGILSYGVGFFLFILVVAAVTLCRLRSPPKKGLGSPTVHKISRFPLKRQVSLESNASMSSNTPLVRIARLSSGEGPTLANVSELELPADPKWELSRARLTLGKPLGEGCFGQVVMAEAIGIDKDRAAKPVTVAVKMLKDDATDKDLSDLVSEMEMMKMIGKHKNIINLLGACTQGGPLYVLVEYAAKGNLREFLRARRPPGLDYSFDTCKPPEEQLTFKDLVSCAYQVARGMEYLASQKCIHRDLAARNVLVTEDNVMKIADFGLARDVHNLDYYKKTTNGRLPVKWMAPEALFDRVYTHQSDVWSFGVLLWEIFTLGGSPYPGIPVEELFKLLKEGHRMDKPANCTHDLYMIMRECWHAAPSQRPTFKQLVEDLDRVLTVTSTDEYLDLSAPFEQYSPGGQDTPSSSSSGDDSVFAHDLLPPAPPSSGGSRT
compound,measurement,setting,value
O=C(O)CCC/C=C\C[C@@H]1[C@@H](/C=C/[C@@H](O)COc2cccc(C(F)(F)F)c2)[C@H](O)C[C@@H]1O,ΔTm,[1],0.51 °C
same,ΔTm,Peregrin (Homo sapiens),-2.28 °C
O=C(O)CCCCN(CCc1cc(F)ccc1OCc1ccc(-c2ccc(C(F)(F)F)cc2)cc1)Cc1ccc(C(=O)O)cc1,ΔTm,[1],-0.36 °C
same,ΔTm,Peregrin (Homo sapiens),-3.03 °C
CN(C)C/C=C/C(=O)Nc1ccc(C(=O)Nc2cccc(Nc3ncc(Cl)c(-c4c[nH]c5ccccc45)n3)c2)cc1,ΔTm,[1],6.9 °C
same,ΔTm,Peregrin (Homo sapiens),0.03 °C
CCCCC[C@H](O)/C=C/[C@H]1[C@H](O)CC(=O)[C@@H]1CCCCCCC(=O)O,ΔTm,[1],0.41 °C
same,ΔTm,Peregrin (Homo sapiens),-2.24 °C
CCOC(=O)c1ccc(CN(Cc2ccc(-c3cccc(S(C)(=O)=O)c3)cc2)S(=O)(=O)c2c(C)cc(C)cc2C)o1,ΔTm,[1],-1.46 °C
same,ΔTm,Peregrin (Homo sapiens),-3.02 °C
CNC(=O)c1c[nH]c2ccc(Nc3nccc(-c4ccccn4)n3)cc12,ΔTm,[1],0.22 °C
same,ΔTm,Peregrin (Homo sapiens),-0.15 °C
CC(=O)c1c(C)c2cnc(Nc3ccc(N4CCN(CCCCNC(=O)COc5cccc6c5C(=O)N(C5CCC(=O)NC5=O)C6=O)CC4)cn3)nc2n(C2CCCC2)c1=O (configuration not stated),ΔTm,[1],0.48 °C
same,ΔTm,Peregrin (Homo sapiens),-1.22 °C
O=C(O)/C=C/c1ccc(Cn2ccnc2)cc1,ΔTm,[1],0.54 °C
same,ΔTm,Peregrin (Homo sapiens),-2.72 °C
NC(=O)C1CCCc2c1[nH]c1ccc(Cl)cc21 (configuration not stated),ΔTm,[1],0.98 °C
same,ΔTm,Peregrin (Homo sapiens),-0.12 °C
N#Cc1cccc(-c2c[nH]c3ncnc(N4CCOCC4)c23)c1,ΔTm,[1],2.14 °C
same,ΔTm,Peregrin (Homo sapiens),-1.1 °C
NC1(c2ccc(-c3nc4c(O)ccnn4c3-c3ccccc3)cc2)CCC1,ΔTm,[1],0.79 °C
same,ΔTm,Peregrin (Homo sapiens),0.22 °C
CN(c1ccc(C(F)(F)F)cc1)S(=O)(=O)c1ccc(C(=O)Nc2nc(-c3ccccn3)cs2)cc1,ΔTm,[1],8.54 °C
same,ΔTm,Peregrin (Homo sapiens),7.54 °C
Cc1nc2cccnc2n2c(-c3cc([C@@]4(O)CCCOC4)ccc3Cl)nnc12,ΔTm,[1],0.59 °C
same,ΔTm,Peregrin (Homo sapiens),-2.38 °C
CC(C)NC(=O)[C@H]1CCC[C@H]1Nc1nc(Nc2ccc(C(=O)N(C)C3CCN(C)CC3)cc2)ncc1Cl,ΔTm,[1],6.71 °C and 5.98 °C
same,ΔTm,Peregrin (Homo sapiens),-1.64 °C and -0.91 °C
CCOC(=O)/N=C(\N)c1ccc(OCc2cccc(COc3ccc(C(C)(C)c4ccc(OC(=O)OCC)cc4)cc3)c2)cc1,ΔTm,[1],0.54 °C
same,ΔTm,Peregrin (Homo sapiens),-8.55 °C
CCN(C)S(=O)(=O)Nc1cccc(-c2ccc3c(NC(=O)C4CC4)n[nH]c3c2)c1,ΔTm,[1],2.38 °C
same,ΔTm,Peregrin (Homo sapiens),-0.56 °C
COc1ccc(N(C(=O)Nc2c(C)cccc2C)c2cc(Nc3ccc(N4CCN(C)CC4)cc3)ncn2)c(OC)c1,ΔTm,[1],8.93 °C
same,ΔTm,Peregrin (Homo sapiens),-3.64 °C
Cc1sc(C(=O)c2cncnc2N[C@@H]2C[C@H](COS(N)(=O)=O)[C@@H](O)C2)cc1[C@@H]1NCCc2ccc(Cl)cc21,ΔTm,[1],0.36 °C
same,ΔTm,Peregrin (Homo sapiens),-2.76 °C
C1=Cc2ccccc2C(=C2CCN(CCCCc3nnn[nH]3)CC2)c2ccccc21,ΔTm,[1],0.36 °C
same,ΔTm,Peregrin (Homo sapiens),-1.48 °C
Cn1ncc(-c2nc(N[C@H]3CC[C@H](N)CC3)ncc2Cl)c1CC1CC1,ΔTm,[1],1.76 °C
same,ΔTm,Peregrin (Homo sapiens),-1.56 °C
COc1cc(-c2cn[nH]c2)ccc1C(=O)Nc1ccc2c(c1)CCNCC2,ΔTm,[1],0.93 °C
same,ΔTm,Peregrin (Homo sapiens),0.1 °C
COc1cc2nc(C)nc(NC3(c4ccccc4)CC3)c2cc1OC,ΔTm,[1],0.4 °C
same,ΔTm,Peregrin (Homo sapiens),-3.11 °C
CC(=O)N1CCN([C@H]2CCC[C@@H](NC(=O)c3cc4c(F)ccc(C)c4[nH]3)C2)CC1,ΔTm,[1],0.6 °C
same,ΔTm,Peregrin (Homo sapiens),-1.84 °C
O=C(NC[C@@H]1[C@H]2CN(C(=O)OCc3cc(C(F)(F)F)cc(C(F)(F)F)c3)C[C@@H]12)c1ccc2[nH]nnc2c1,ΔTm,[1],1.51 °C
same,ΔTm,Peregrin (Homo sapiens),-0.49 °C
CCN1C(=O)/C(=C(\NC2CCN(C)CC2)c2ccc3c(c2)OCO3)c2cc(C(C)=O)ccc21,ΔTm,[1],1.13 °C
same,ΔTm,Peregrin (Homo sapiens),-1.89 °C
Nc1nccc(-c2c(-c3ccc(F)cc3)ncn2C2CCCCC2)n1,ΔTm,[1],0.92 °C
same,ΔTm,Peregrin (Homo sapiens),-0.2 °C
Cc1ccc(-c2cn3nc(C(=O)NC4(c5ccc(F)cc5)CN(C)C4)c(C(C)C)c3c(=O)[nH]2)cc1C,ΔTm,[1],0.62 °C
same,ΔTm,Peregrin (Homo sapiens),-2.45 °C
CC(C)c1cnc(NC(=O)Cc2ccccc2)s1,ΔTm,[1],0.87 °C
same,ΔTm,Peregrin (Homo sapiens),0.11 °C
NCc1ccc(OCCCc2sc(-c3ccc4c(c3)/C(=N/Nc3nc5ccccc5s3)CCC4)nc2C(=O)O)cc1,ΔTm,[1],0.58 °C
same,ΔTm,Peregrin (Homo sapiens),-3.06 °C
O=C(O)C[C@H]1CC[C@H](c2ccc(NC(=O)c3nnc(Nc4ccc(F)c(F)c4)o3)cc2)CC1,ΔTm,[1],0.79 °C
same,ΔTm,Peregrin (Homo sapiens),-2.89 °C
C=CC(=O)Nc1ccc2[nH]c(=O)n(C3CCN(Cc4ccc(-c5ccc6c(c5)NC(=O)CO6)cc4)CC3)c2c1,ΔTm,[1],0.37 °C
same,ΔTm,Peregrin (Homo sapiens),-0.12 °C
CNS(=O)(=O)c1ccc(N(C)C)c(Nc2ncnc3cc(OC)c(OC)cc23)c1,ΔTm,[1],0.55 °C
same,ΔTm,Peregrin (Homo sapiens),-0.25 °C
Cn1cc(C(=O)O)c2ccc(N3CCC(OCc4c(-c5c(Cl)cccc5Cl)noc4C4CC4)CC3)cc21,ΔTm,[1],0.91 °C
same,ΔTm,Peregrin (Homo sapiens),-1.9 °C
O=C(Nc1ccc(N2CCC(C(=O)N3CCOCC3)CC2)cc1)c1cnc(Oc2ccccc2)nc1,ΔTm,[1],0.5 °C
same,ΔTm,Peregrin (Homo sapiens),-2.41 °C
COc1ccc(C(=O)N[C@H](C)c2cccc(C(=O)Nc3nc4c(s3)CN(C)CC4)c2)cc1C,ΔTm,[1],0.97 °C
same,ΔTm,Peregrin (Homo sapiens),-0.23 °C
NCCCc1c(C(=O)O)[nH]c2ccc(C(=O)Nc3ccccc3)cc12,ΔTm,[1],0.79 °C
same,ΔTm,Peregrin (Homo sapiens),-1.68 °C
Cc1nnc2n1-c1sc3c(c1C(c1ccccc1Cl)=NC2)C[C@H](C(=O)N1CCOCC1)C3,ΔTm,[1],0.59 °C
same,ΔTm,Peregrin (Homo sapiens),-1.51 °C
COc1ccc(S(=O)(=O)N2CCOCC2)cc1Nc1ccc2c(n1)N(C1CCN(C)CC1)[C@H](C)C(=O)N2C,ΔTm,[1],0.38 °C
same,ΔTm,Peregrin (Homo sapiens),1.52 °C
COc1ccccc1[C@@H]1CNCCC12CCN(C(=O)[C@](OC)(c1ccccc1)C(F)(F)F)CC2,ΔTm,[1],0.45 °C
same,ΔTm,Peregrin (Homo sapiens),-1.57 °C
O=C(NC1CCNCC1)c1n[nH]cc1NC(=O)c1c(Cl)cccc1Cl,ΔTm,[1],0.78 °C
same,ΔTm,Peregrin (Homo sapiens),-1.28 °C
Cc1cc(=O)n(C)c2cc(N3C(=O)CC[C@H](NS(=O)(=O)CC(C)C)[C@H]3c3ccc(Cl)cc3)ccc12,ΔTm,[1],0.86 °C
same,ΔTm,Peregrin (Homo sapiens),-0.8 °C
COc1ccc(Br)cc1S(=O)(=O)NC(=O)/C=C/c1cc(Cl)ccc1Cc1ccc2ccccc2c1,ΔTm,[1],0.7 °C
same,ΔTm,Peregrin (Homo sapiens),-10.6 °C
CN(C(=O)c1cnn2cccnc12)c1cc2c(cc1N1CCOCC1)C(=O)N(C[C@@H](F)C(C)(C)O)C2,ΔTm,[1],1.38 °C
same,ΔTm,Peregrin (Homo sapiens),-1.49 °C
Cc1n[nH]c2ncc(C(=O)N3CCC[C@H]3c3ccc(Cl)cc3)cc12,ΔTm,[1],0.54 °C
same,ΔTm,Peregrin (Homo sapiens),-1.04 °C
Cc1cc(Cn2c(N3CC4(CNC4)C3)nc3c(N4CCN(C)CC4)cc(Cl)cc32)cc(C)c1F,ΔTm,[1],0.86 °C
same,ΔTm,Peregrin (Homo sapiens),-3.49 °C
CCCCC[C@@](C)(O)/C=C/[C@H]1C(=O)CC(O)C1C/C=C\CCCC(=O)O (some centres not stated),ΔTm,[1],0.37 °C
same,ΔTm,Peregrin (Homo sapiens),-1.97 °C
CCCN1C(=O)c2ccc(Cl)cc2Nc2ncccc21,ΔTm,[1],1.35 °C
same,ΔTm,Peregrin (Homo sapiens),-3.34 °C
Cc1nc(-c2ccc(C(F)(F)F)cc2)sc1C(=O)NCc1ccc(OC(C)(C)C(=O)O)cc1,ΔTm,[1],0.71 °C
same,ΔTm,Peregrin (Homo sapiens),-1.41 °C
O=C(O)c1cc2cc(Cc3cccnc3)ccc2o1,ΔTm,[1],0.96 °C
same,ΔTm,Peregrin (Homo sapiens),-2.16 °C
C[S+](C)[O-],ΔTm,[1],0 °C (2×) and 0.62 °C
same,ΔTm,Peregrin (Homo sapiens),0 °C (2×) and -0.4 °C
O=C(NCCN1CCC2(CC1)C(=O)NCN2c1cccc(F)c1)c1ccc2ccccc2c1,ΔTm,[1],0.36 °C
same,ΔTm,Peregrin (Homo sapiens),-3.2 °C
Cn1nccc1-c1ccc(Sc2cccc(C3(C(N)=O)CCOCC3)c2)cc1,ΔTm,[1],0.47 °C
same,ΔTm,Peregrin (Homo sapiens),-2.35 °C
COc1cc2nc([C@@H]3CCCS(=O)(=O)C3)n(C)c2cc1NC(=O)c1cccc(C(C)(F)F)n1,ΔTm,[1],0.66 °C
same,ΔTm,Peregrin (Homo sapiens),-2.41 °C
N=C(N)NCCC[C@@H](NC(=O)C(c1ccccc1)c1ccccc1)C(=O)NCc1ccc(CNC(N)=O)cc1,ΔTm,[1],0.46 °C
same,ΔTm,Peregrin (Homo sapiens),-2 °C
C[C@@H]1CN(CC(=O)N2CC(C)(C)c3nc(CO)c(Cc4ccc(F)cc4)cc32)[C@@H](CN2CCOC[C@H]2C)CN1,ΔTm,[1],0.45 °C
same,ΔTm,Peregrin (Homo sapiens),-2.93 °C
Cc1nccn1-c1ccc(Sc2cccc(C3(C(N)=O)CCOCC3)c2)cc1,ΔTm,[1],0.44 °C
same,ΔTm,Peregrin (Homo sapiens),-1.72 °C
CCOC(=O)N1CCC(CN(Cc2ccc(Cl)cc2)Cc2ccc([N+](=O)[O-])s2)C1 (configuration not stated),ΔTm,[1],0.35 °C
same,ΔTm,Peregrin (Homo sapiens),-2.07 °C
COc1nc2ccc([C@@](O)(c3ccc(Cl)cc3)c3cncn3C)cc2c(Cl)c1Cc1ccc(-n2cccn2)cc1,ΔTm,[1],-1.77 °C
same,ΔTm,Peregrin (Homo sapiens),-1.33 °C
CC[C@@H](C(=O)OC)n1c(=O)c2ccccc2n(Cc2cn(C)c3cccc(C)c23)c1=O,ΔTm,[1],1.21 °C
same,ΔTm,Peregrin (Homo sapiens),-3.31 °C
COc1cccc(-c2c(C)c(Cc3c(F)cccc3C(F)(F)F)c3n(c2=O)[C@@H]([C@@H](N)c2ccccc2)CS3)c1F,ΔTm,[1],-2.84 °C
same,ΔTm,Peregrin (Homo sapiens),-4.1 °C
CC(C)(C#Cc1ccc(NC(=O)COc2ccccc2C(=O)c2ccccc2)c(Cl)c1)C(=O)O,ΔTm,[1],0.52 °C
same,ΔTm,Peregrin (Homo sapiens),-4.06 °C

# Source: ChEMBL document CHEMBL5308504, “Tm Shift (DSF) assay results for EUbOPEN Chemogenomics Library” (2023)
